Results taken from patent US20260373156A1, “CANCER TREATMENTS USING MTA-COOPERATIVE PRMT5 INHIBITORS” (AMGEN INC., priority 2022, published 2026).

Key:
PSN1 cells = assay: CellTiter-Glo viability and CalcuSyn synergy, PRMT5 inhibitor + KIF18A, 6 days; settings: for Combination Fa: 8640 min
A549 cells [1] = assay: CellTiter-Glo viability and CalcuSyn synergy, PRMT5 inhibitor + KRAS G12X inhibitor, 6 days; settings: for Combination Fa: 8640 min
MIAPACA2T2 cells [2] = assay: CellTiter-Glo viability and CalcuSyn synergy, PRMT5 inhibitor + KIF18A, 6 days; settings: for Combination Fa: 8640 min
LU5268 NSCLC xenografts = assay: Tumor growth inhibition, LU5268 NSCLC xenografts (Example 13); assay type: in vivo, Female NOD/SCID mice; settings: Compound B 100 mg/kg orally once daily + sotorasib 100 mg/kg; versus either single agent alone
Description: 10 Female NOD/SCID mice were implanted with LU5268 NSCLC tumor xenografts. Mean tumor volumes for each grouping were between 100-200 mm^3. […] Plotted data represents the TGI (tumor growth inhibition), n=10 for each group.

A549 cells [3] = assay: CellTiter-Glo viability and CalcuSyn synergy, PRMT5 inhibitor + trametinib, 6 days; settings: for Combination Fa: 8640 min
SUM149PT cells = assay: CellTiter-Glo viability and CalcuSyn synergy, PRMT5 inhibitor + olaparib, 6 days; assay type: cell-based; settings: for Combination Fa: 8640 min
Experimental: Raw luminescent values were converted to fraction affected (Fa) with the following equation: […]
Synergy analysis was performed using the CalcuSyn software to determine CI scores based on the drug concentrations used and corresponding Fa values. Results are shown in Tables 1-3 below. *CI Values (Calcusyn): Strong Synergism: 0.1-0.3; Synergism: 0.3-0.7; Moderate Synergism: 0.7-0.85; Slight Synergism: 0.85-0.9; Nearly Additive: 0.9-1.1.

MIAPACA2T2 cells [4] = assay: CellTiter-Glo viability and CalcuSyn synergy, PRMT5 inhibitor + sotorasib, 6 days; settings: for Combination Fa: 8640 min
LU99 NSCLC xenografts = assay: Tumor growth inhibition, LU99 NSCLC xenografts (Example 12); assay type: in vivo, Female NOD/SCID mice; settings: Compound B 100 mg/kg orally once daily + sotorasib 100 mg/kg; versus either single agent alone
Description: 10 Female NOD/SCID mice were implanted with LU99 NSCLC tumor xenografts. Mean tumor volumes for each grouping were between 100-200 mm^3. […] Plotted data represents the TGI (tumor growth inhibition), n=10 for each group.

MIAPACA2 cells = assay: CellTiter-Glo cell viability, PRMT5 inhibitor + sotorasib, 6 days; assay type: cell-based; settings: Compound B + sotorasib
Experimental: Cell viability was measured by the CellTiter-Glo Luminescence assay after 6 days. […] To assess cell growth after combination treatment, nuclear counts were performed on the IncuCyte live cell imager over 8 days.

LU99 cells = assay: CellTiter-Glo viability and CalcuSyn synergy, PRMT5 inhibitor + sotorasib, 6 days; settings: for Combination Fa: 8640 min
[5] = Compound B 0.0384 μM + KIF18A 0.003951 μM
[6] = Compound B 0.0384 μM + KIF18A 0.005926 μM
[7] = Compound B 0.0384 μM + KIF18A 0.008889 μM
[8] = Compound B 0.0384 μM + KIF18A 0.013333 μM
[9] = Compound B 0.0384 μM + KIF18A 0.02 μM
[10] = Compound B 0.0384 μM + KIF18A 0.03 μM
[11] = Compound B 0.0384 μM + KIF18A 0.045 μM
[12] = Compound B 0.0808 μM + KRAS G12X inhibitor 0.010628 μM
[13] = Compound B 0.0808 μM + KRAS G12X inhibitor 0.020193 μM
[14] = Compound B 0.0808 μM + KRAS G12X inhibitor 0.038367 μM
[15] = Compound B 0.0808 μM + KRAS G12X inhibitor 0.072897 μM
[16] = Compound B 0.0808 μM + KRAS G12X inhibitor 0.138504 μM
[17] = Compound B 0.0808 μM + KRAS G12X inhibitor 0.263158 μM
[18] = Compound B 0.0808 μM + KRAS G12X inhibitor 0.5 μM
[19] = Compound B 0.2302 μM + KIF18A 0.021256 μM
[20] = Compound B 0.2302 μM + KIF18A 0.040386 μM
[21] = Compound B 0.2302 μM + KIF18A 0.076734 μM
[22] = Compound B 0.2302 μM + KIF18A 0.145794 μM
[23] = Compound B 0.2302 μM + KIF18A 0.277008 μM
[24] = Compound B 0.2302 μM + KIF18A 0.526316 μM
[25] = Compound B 0.2302 μM + KIF18A 1 μM
[26] = Compound B 0.0425 μM + trametinib 0.000213 μM
[27] = Compound B 0.0425 μM + trametinib 0.000404 μM
[28] = Compound B 0.0425 μM + trametinib 0.000767 μM
[29] = Compound B 0.0425 μM + trametinib 0.001458 μM
[30] = Compound B 0.0425 μM + trametinib 0.00277 μM
[31] = Compound B 0.0425 μM + trametinib 0.005263 μM
[32] = Compound B 0.0425 μM + trametinib 0.01 μM
[33] = Compound B 0.277008 μM + olaparib 0.103573 μM
[34] = Compound B 0.277008 μM + olaparib 0.176074 μM
[35] = Compound B 0.277008 μM + olaparib 0.299326 μM
[36] = Compound B 0.277008 μM + olaparib 0.508854 μM
[37] = Compound B 0.277008 μM + olaparib 0.865052 μM
[38] = Compound B 0.277008 μM + olaparib 1.47059 μM
[39] = Compound B 0.277008 μM + olaparib 2.5 μM
[40] = Compound B 0.4374 μM + sotorasib 0.00596 μM
[41] = Compound B 0.4374 μM + sotorasib 0.009537 μM
[42] = Compound B 0.4374 μM + sotorasib 0.015259 μM
[43] = Compound B 0.4374 μM + sotorasib 0.024414 μM
[44] = Compound B 0.4374 μM + sotorasib 0.039063 μM
[45] = Compound B 0.4374 μM + sotorasib 0.0625 μM
[46] = Compound B 0.4374 μM + sotorasib 0.1 μM
[47] = Compound B 0.0384 μM + sotorasib 0.15625 μM
[48] = Compound B 0.0384 μM + sotorasib 0.3125 μM
[49] = Compound B 0.0384 μM + sotorasib 0.625 μM
[50] = Compound B 0.0384 μM + sotorasib 1.25 μM
[51] = Compound B 0.0384 μM + sotorasib 2.5 μM
[52] = Compound B 0.0384 μM + sotorasib 5 μM
[53] = Compound B 0.0384 μM + sotorasib 10 μM

## Cc1cc2cc(C(=O)N(Cc3ccc(C(F)(F)F)cn3)[C@@H](C)c3ncccn3)ccc2nc1N [Compound B]
PSN1 cells; [5]
  Computed CI value: 0.627
  Combination Fa: 0.778
PSN1 cells; [6]
  Computed CI value: 0.75
  Combination Fa: 0.751
PSN1 cells; [7]
  Computed CI value: 0.594
  Combination Fa: 0.819
PSN1 cells; [8]
  Computed CI value: 0.645
  Combination Fa: 0.825
PSN1 cells; [9]
  Computed CI value: 0.674
  Combination Fa: 0.844
PSN1 cells; [10]
  Computed CI value: 0.778
  Combination Fa: 0.852
PSN1 cells; [11]
  Computed CI value: 0.813
  Combination Fa: 0.88
A549 cells [1]; [12]
  Computed CI value: 0.38
  Combination Fa: 0.5945
A549 cells [1]; [13]
  Computed CI value: 0.366
  Combination Fa: 0.6255
A549 cells [1]; [14]
  Computed CI value: 0.247
  Combination Fa: 0.7012
A549 cells [1]; [15]
  Computed CI value: 0.284
  Combination Fa: 0.7187
A549 cells [1]; [16]
  Computed CI value: 0.27
  Combination Fa: 0.7582
A549 cells [1]; [17]
  Computed CI value: 0.409
  Combination Fa: 0.7615
A549 cells [1]; [18]
  Computed CI value: 0.503
  Combination Fa: 0.7849
MIAPACA2T2 cells [2]; [19]
  Computed CI value: 0.763
  Combination Fa: 0.5368
MIAPACA2T2 cells [2]; [20]
  Computed CI value: 0.591
  Combination Fa: 0.6323
MIAPACA2T2 cells [2]; [21]
  Computed CI value: 0.578
  Combination Fa: 0.7018
MIAPACA2T2 cells [2]; [22]
  Computed CI value: 0.881
  Combination Fa: 0.7173
MIAPACA2T2 cells [2]; [23]
  Computed CI value: 0.826
  Combination Fa: 0.7944
MIAPACA2T2 cells [2]; [24]
  Computed CI value: 1.158
  Combination Fa: 0.8219
MIAPACA2T2 cells [2]; [25]
  Computed CI value: 2.512
  Combination Fa: 0.8073
LU5268 NSCLC xenografts
  anti-tumor activity: significant anti-tumor activity versus either single agent alone
A549 cells [3]; [26]
  Computed CI value: 0.569
  Combination Fa: 0.4457
A549 cells [3]; [27]
  Computed CI value: 0.514
  Combination Fa: 0.5278
A549 cells [3]; [28]
  Computed CI value: 0.5
  Combination Fa: 0.6046
A549 cells [3]; [29]
  Computed CI value: 0.506
  Combination Fa: 0.6769
A549 cells [3]; [30]
  Computed CI value: 0.452
  Combination Fa: 0.7607
A549 cells [3]; [31]
  Computed CI value: 0.357
  Combination Fa: 0.8409
A549 cells [3]; [32]
  Computed CI value: 0.589
  Combination Fa: 0.8482
SUM149PT cells; [33]
  Computed CI value: 0.618
  Combination Fa: 0.747
SUM149PT cells; [34]
  Computed CI value: 0.579
  Combination Fa: 0.769
SUM149PT cells; [35]
  Computed CI value: 0.777
  Combination Fa: 0.745
SUM149PT cells; [36]
  Computed CI value: 0.582
  Combination Fa: 0.813
SUM149PT cells; [37]
  Computed CI value: 0.565
  Combination Fa: 0.849
SUM149PT cells; [38]
  Computed CI value: 0.543
  Combination Fa: 0.888
SUM149PT cells; [39]
  Computed CI value: 0.504
  Combination Fa: 0.925
MIAPACA2T2 cells [4]; [40]
  Computed CI value: 0.533
  Combination Fa: 0.678
MIAPACA2T2 cells [4]; [41]
  Computed CI value: 0.425
  Combination Fa: 0.749
MIAPACA2T2 cells [4]; [42]
  Computed CI value: 0.443
  Combination Fa: 0.781
MIAPACA2T2 cells [4]; [43]
  Computed CI value: 0.535
  Combination Fa: 0.798
MIAPACA2T2 cells [4]; [44]
  Computed CI value: 0.543
  Combination Fa: 0.838
MIAPACA2T2 cells [4]; [45]
  Computed CI value: 0.471
  Combination Fa: 0.887
MIAPACA2T2 cells [4]; [46]
  Computed CI value: 0.83
  Combination Fa: 0.875
LU99 NSCLC xenografts
  anti-tumor activity: significant anti-tumor activity versus either single agent alone
MIAPACA2 cells
  cell viability: reduced MIAPACA2 cell viability
LU99 cells; [47]
  Computed CI value: 0.307
  Combination Fa: 0.5467
LU99 cells; [48]
  Computed CI value: 0.234
  Combination Fa: 0.5942
LU99 cells; [49]
  Computed CI value: 0.269
  Combination Fa: 0.5919
LU99 cells; [50]
  Computed CI value: 0.273
  Combination Fa: 0.615
LU99 cells; [51]
  Computed CI value: 0.32
  Combination Fa: 0.6304
LU99 cells; [52]
  Computed CI value: 0.321
  Combination Fa: 0.6694
LU99 cells; [53]
  Computed CI value: 0.669
  Combination Fa: 0.6476
